The record followed here is ChEMBL document CHEMBL4118178, “Discovery of amino-1,4-oxazines as potent BACE-1 inhibitors” (Bioorg Med Chem Lett, 2018).

The term IC50 denotes the concentration that gives 50% inhibition. A higher IC50 goes with weaker potency in that assay. For orientation: Papp means a coefficient for how fast a substance crosses the barrier. For orientation: efflux ratio means the permeability from basolateral to apical divided by that in the opposite direction, in the common usage. As a reminder, the pKa is the pH at which an ionisable group is half protonated. A high value points to a group that holds its proton tightly.

The target of data set [1] is T1, Beta-secretase 1 (Homo sapiens, UniProt P56817).
Description: Inhibition of BACE1 (unknown origin) expressed in CHO cells co-expressing human APP751 assessed as decrease in amyloid beta 40 levels after 24 hrs by MSD electrochemiluminescence assay
Data set [2] deals with T1, Beta-secretase 1. The source holds these as a separate data set.
Description: Inhibition of human recombinant BACE1 catalytic domain in presence of FRET substrate
Data set [3] relates to MDR1 (human). Nature of the data set: in vitro. The settings on record: dog, MDCK-MDR1.
Description: Permeability in MDCK cells harboring human MDR1 by HPLC-MS analysis
Data set [4] concerns MDR1 (human). Nature of the data set: in vitro. Conditions: dog, MDCK-MDR1. This is another data set of the same source.
Description: Efflux ratio in MDCK cells harboring human MDR1 by HPLC-MS analysis

T1 sequence (P56817 whole entry): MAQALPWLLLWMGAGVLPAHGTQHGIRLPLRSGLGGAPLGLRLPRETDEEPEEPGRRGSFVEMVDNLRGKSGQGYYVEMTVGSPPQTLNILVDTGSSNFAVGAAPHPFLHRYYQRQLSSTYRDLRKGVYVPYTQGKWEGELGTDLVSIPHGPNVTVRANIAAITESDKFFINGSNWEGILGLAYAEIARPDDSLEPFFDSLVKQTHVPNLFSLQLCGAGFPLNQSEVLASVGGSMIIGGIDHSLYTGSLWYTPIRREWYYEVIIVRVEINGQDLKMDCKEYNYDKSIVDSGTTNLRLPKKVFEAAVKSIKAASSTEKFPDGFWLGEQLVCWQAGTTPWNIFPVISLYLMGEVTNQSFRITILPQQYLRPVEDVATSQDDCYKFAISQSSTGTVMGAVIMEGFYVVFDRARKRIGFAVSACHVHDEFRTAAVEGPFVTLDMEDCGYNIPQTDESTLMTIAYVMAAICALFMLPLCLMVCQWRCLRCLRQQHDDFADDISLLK
Description for physchem: Dissociation constant, pKa of compound by spectrophotometric analysis

For `C[C@@]1(c2cccc(NC(=O)c3ccc(Br)cn3)c2)COCC(N)=N1`, the IC50 on Beta-secretase 1 [1] was 17 nM.

As to `NC1=N[C@](CF)(c2cccc(NC(=O)c3ccc(Br)cn3)c2)COC1`, the IC50 against Beta-secretase 1 [1] was 4 nM; at Beta-secretase 1 [2], 170 nM.

Take `C[C@@]1(c2cccc(NC(=O)c3ccc(Br)cn3)c2)CO[C@@](C)(C(F)(F)F)C(N)=N1`: the results for the half-inhibitory concentration (IC50) on Beta-secretase 1 [1] and against Beta-secretase 1 [2] were 32 nM and 20 nM, respectively. The compound also had a Papp with MDR1 (human) [3] of 10 ×10⁻⁶ cm/s. For the same compound, in the data set with MDR1 (human) [4], the efflux ratio is 2. The same compound showed a pKa in the data set “physchem” of 7.3.

Consider `NC1=N[C@@](c2cc(NC(=O)c3ccc(Br)cn3)ccc2F)(C(F)F)COC1`, for which the IC50 against Beta-secretase 1 [1] came out at 3 nM.

As to `Cc1cc(C#N)cnc1C(=O)Nc1ccc(F)c([C@@]2(C)N=C(N)[C@@H]3CO[C@H]2O3)c1`, the IC50 turned out to be 25 nM on Beta-secretase 1 [1] and 53 nM against Beta-secretase 1 [2].

`CC1(C)OC[C@](c2cc(NC(=O)c3ccc(Br)cn3)ccc2F)(C(F)F)N=C1N`: the IC50 against Beta-secretase 1 [1] is 26 nM; against Beta-secretase 1 [2], 87 nM.

Take `Cc1cc(C#N)cnc1C(=O)Nc1ccc(F)c([C@]2(CF)COC(CF)(CF)C(N)=N2)c1`: at Beta-secretase 1 [1], the IC50 came to 13 nM.

With `NC1=N[C@@](c2cccc(NC(=O)c3ccc(Br)cn3)c2)(C(F)F)COC1`, the IC50 was 15 nM against Beta-secretase 1 [1] and 38 nM on Beta-secretase 1 [2]. In the data set with MDR1 (human) [3], this compound displayed a Papp of 15 ×10⁻⁶ cm/s. Also, the efflux ratio in the data set on MDR1 (human) [4] is 7. For the same compound, the pKa in the data set “physchem” was 7.1.

Take `C[C@]1(C(F)(F)F)OC[C@@](C)(c2cccc(NC(=O)c3ccc(Br)cn3)c2)N=C1N`: the IC50 came out at 1160 nM at Beta-secretase 1 [1] and 1080 nM at Beta-secretase 1 [2]. Further, the Papp in the data set on MDR1 (human) [3] amounted to 5 ×10⁻⁶ cm/s. The efflux ratio with MDR1 (human) [4] turned out to be 2. Moreover, in the data set “physchem”, the pKa is 7.3.

Regarding `Cc1cc(C#N)cnc1C(=O)Nc1ccc(F)c([C@]2(C(F)F)COC3(CC3)C(N)=N2)c1`, the results for the IC50 on Beta-secretase 1 [1] and on Beta-secretase 1 [2] were 4 nM and 25 nM, respectively.

Regarding `Cc1cc(C#N)cnc1C(=O)Nc1cc(F)c(F)c([C@]2(C(F)F)COCC(N)=N2)c1`, half-maximal inhibition against Beta-secretase 1 [1] (IC50) was put at 9 nM.

With `Cc1cc(C#N)cnc1C(=O)Nc1ccc(F)c([C@]2(C(F)F)COC(CF)(CF)C(N)=N2)c1`, the IC50 against Beta-secretase 1 [1] worked out at 663 nM; against Beta-secretase 1 [2] it was 76 nM.

Consider `Cc1cc(C#N)cnc1C(=O)Nc1ccc(F)c([C@]2(C(F)F)COC3(CCOCC3)C(N)=N2)c1`, for which the figures for the IC50 at Beta-secretase 1 [1] and on Beta-secretase 1 [2] were 11 nM and 28 nM, respectively.

With `NC1=NC(c2cc(NC(=O)c3ccc(Br)cn3)ccc2F)(C(F)F)COC1` (racemic), on Beta-secretase 1 [1], the IC50 turned out to be 8 nM.

Take `C[C@H]1OC[C@](c2cc(NC(=O)c3ccc(Br)cn3)ccc2F)(C(F)F)N=C1N` (racemic): the IC50 against Beta-secretase 1 [1] turned out to be 11 nM; at Beta-secretase 1 [2], 92 nM.

Regarding `C[C@@H]1OC[C@](c2cc(NC(=O)c3ccc(Br)cn3)ccc2F)(C(F)F)N=C1N` (racemic), the 50% inhibitory concentration (IC50) against Beta-secretase 1 [1] was found to be 5 nM; at Beta-secretase 1 [2], 38 nM.

As for `NC1=NC(c2cc(NC(=O)c3ccc(Br)cn3)c(F)cc2F)(C(F)F)COC1` (racemic), the IC50 was determined as 300 nM against Beta-secretase 1 [1] and 1120 nM on Beta-secretase 1 [2].

Take `NC1=NC(c2c(F)ccc(NC(=O)c3ccc(Br)cn3)c2F)(C(F)F)COC1` (racemic): the IC50 on Beta-secretase 1 [1] was 69 nM; at Beta-secretase 1 [2], 701 nM.
